Assay results reported in ChEMBL document CHEMBL1154899, “Synthesis and biological evaluation of caffeic acid 3,4-dihydroxyphenethyl ester” (J Nat Prod, 2010).

How the values were obtained:
Assay type in all cases: functional
[1] = tested on: HL-60(TB); test: Antiproliferative activity against human HL-60(TB) cells assessed as cell growth at 500 uM by SRB assay; details: read-out: Activity
[2] = tested on: HT-29; test: Antiproliferative activity against human HT-29 cells assessed as cell growth at 50 uM by SRB assay; details: read-out: Activity
[3] = tested on: SK-OV-3; test: Antiproliferative activity against human SKOV3 cells assessed as cell growth at 5 uM by SRB assay; details: read-out: Activity
[4] = tested on: MOLT-4; test: Antiproliferative activity against human MOLT4 cells assessed as cell growth at 0.5 uM by SRB assay; details: read-out: Activity
[5] = tested on: NCI-H322M; test: Antiproliferative activity against human NCI-H322M cells assessed as cell growth at 0.5 uM by SRB assay; details: read-out: Activity
[6] = tested on: SW-620; test: Antiproliferative activity against human SW620 cells assessed as cell growth at 50 uM by SRB assay; details: read-out: Activity
[7] = tested on: 786-0; test: Antiproliferative activity against human 786-0 cells by SRB assay
[8] = tested on: SK-MEL-5; test: Antiproliferative activity against human SK-MEL-5 cells assessed as cell growth at 5 mM by SRB assay; details: read-out: Activity
[9] = tested on: OVCAR-3; test: Antiproliferative activity against human OVCAR-3 cells assessed as cell growth at 5 uM by SRB assay; details: read-out: Activity
[10] = tested on: MDA-MB-435; test: Antiproliferative activity against human MDA-MB-435 cells by SRB assay
[11] = tested on: COLO 205; test: Antiproliferative activity against human COLO205 cells assessed as cell growth at 50 uM by SRB assay; details: read-out: Activity
[12] = tested on: K562; test: Antiproliferative activity against human K562 cells assessed as cell growth at 0.5 uM by SRB assay; details: read-out: Activity
[13] = tested on: NCI-H322M; test: Antiproliferative activity against human NCI-H322M cells assessed as cell growth at 5 uM by SRB assay; details: read-out: Activity
[14] = tested on: LOX IMVI; test: Antiproliferative activity against human LOXIMVI cells by SRB assay
[15] = Antiproliferative activity against human […] cells by SRB assay
[16] = tested on: A498; test: Antiproliferative activity against human A498 cells assessed as cell growth at […] by SRB assay; details: read-out: Activity
[17] = tested on: UO-31; test: Antiproliferative activity against human UO31 cells assessed as cell growth at 5 uM by SRB assay; details: read-out: Activity
[18] = tested on: EKVX; test: Antiproliferative activity against human EKVX cells assessed as cell growth at 500 uM by SRB assay; details: read-out: Activity
[19] = tested on: RXF 393; test: Antiproliferative activity against human RXF393 cells assessed as cell growth at 0.5 uM by SRB assay; details: read-out: Activity
[20] = tested on: MCF7; test: Antiproliferative activity against human MCF7 cells by SRB assay
[21] = tested on: SNB-75; test: Antiproliferative activity against human SNB75 cells assessed as cell growth at 0.5 uM by SRB assay; details: read-out: Activity
[22] = Antiproliferative activity against human Hs 578T cells assessed as cell growth at 0.5 uM by SRB assay; details: read-out: Activity
[23] = tested on: HCT-116; test: Antiproliferative activity against human HCT116 cells by SRB assay
[24] = tested on: COLO 205; test: Antiproliferative activity against human COLO205 cells assessed as cell growth at 0.5 uM by SRB assay; details: read-out: Activity
[25] = tested on: NCI-H460; test: Antiproliferative activity against human NCI-H460 cells assessed as cell growth at 50 uM by SRB assay; details: read-out: Activity
[26] = tested on: SNB-75; test: Antiproliferative activity against human SNB75 cells assessed as cell growth at 5 mM by SRB assay; details: read-out: Activity
[27] = tested on: K562; test: Antiproliferative activity against human K562 cells assessed as cell growth at […] by SRB assay; details: read-out: Activity
[28] = tested on: NCI/ADR-RES; test: Antiproliferative activity against human NCI/ADR-RES cells by SRB assay
[29] = tested on: OVCAR-4; test: Antiproliferative activity against human OVCAR4 cells assessed as cell growth at 50 uM by SRB assay; details: read-out: Activity
[30] = tested on: NCI-H522; test: Antiproliferative activity against human NCI-H522 cells assessed as cell growth at 0.5 uM by SRB assay; details: read-out: Activity
[31] = tested on: TK-10; test: Antiproliferative activity against human TK10 cells assessed as cell growth at 5 uM by SRB assay; details: read-out: Activity
[32] = tested on: SNB-19; test: Antiproliferative activity against human SNB19 cells assessed as cell growth at 5 uM by SRB assay; details: read-out: Activity
[33] = tested on: SK-MEL-28; test: Antiproliferative activity against human SK-MEL-28 cells assessed as cell growth at 5 uM by SRB assay; details: read-out: Activity
[34] = tested on: KM12; test: Antiproliferative activity against human KM12 cells assessed as cell growth at 500 uM by SRB assay; details: read-out: Activity
[35] = tested on: NCI-H522; test: Antiproliferative activity against human NCI-H522 cells assessed as cell growth at 50 uM by SRB assay; details: read-out: Activity
[36] = tested on: A549; test: Antiproliferative activity against human A549 cells assessed as cell growth at 50 uM by SRB assay; details: read-out: Activity
[37] = tested on: NCI-H226; test: Antiproliferative activity against human NCI-H226 cells assessed as cell growth at 500 uM by SRB assay; details: read-out: Activity
[38] = tested on: NCI/ADR-RES; test: Antiproliferative activity against human NCI/ADR-RES cells assessed as cell growth at 50 uM by SRB assay; details: read-out: Activity
[39] = tested on: SNB-75; test: Antiproliferative activity against human SNB75 cells assessed as cell growth at 500 uM by SRB assay; details: read-out: Activity
[40] = tested on: SF-268; test: Antiproliferative activity against human SF268 cells assessed as cell growth at 50 uM by SRB assay; details: read-out: Activity
[41] = tested on: HCT-15; test: Antiproliferative activity against human HCT15 cells assessed as cell growth at 500 uM by SRB assay; details: read-out: Activity
[42] = tested on: MOLT-4; test: Antiproliferative activity against human MOLT4 cells assessed as cell growth at 5 mM by SRB assay; details: read-out: Activity
[43] = read-out: LC50 (the source's name)
[44] = read-out: pLC50 (the source's name) (converted)

O=C(/C=C/c1ccc(O)c(O)c1)OCCc1ccc(O)c(O)c1
growth at 500 µM [1]: 37%
growth at 50 µM [2]: 98%
growth at 5 µM [3]: 96%
growth at 0.5 µM [4]: 101%
growth at 0.5 µM [5]: 90%
growth at 50 µM [6]: 98%
GI50 ([7]; read-out: GI50): 13.5 µM
CC50 [7, 43]: > 50 µM
TGI ([7]; read-out: TGI): > 50 µM
GI50 ([7]; read-out: pGI50 (converted)): 13.5 µM
CC50 [7, 44]: > 50.1 µM
TGI ([7]; read-out: pTGI): > 50.1 µM
growth at 5000 µM [8]: -1%
growth at 5 µM [9]: 99%
GI50 ([10]; read-out: GI50): 4.01 µM
CC50 [10, 43]: > 50 µM
TGI ([10]; read-out: TGI): > 50 µM
GI50 ([10]; read-out: pGI50 (converted)): 3.98 µM
CC50 [10, 44]: > 50.1 µM
TGI ([10]; read-out: pTGI): > 50.1 µM
growth at 50 µM [11]: 89%
growth at 0.5 µM [12]: 107%
growth at 5 µM [13]: 92%
GI50 ([14]; read-out: GI50): 6.38 µM
CC50 [14, 43]: > 50 µM
TGI ([14]; read-out: TGI): 35.1 µM
GI50 ([14]; read-out: pGI50 (converted)): 6.31 µM
CC50 [14, 44]: > 50.1 µM
TGI ([14]; read-out: pTGI (converted)): 35.5 µM
GI50 ([15]; read-out: GI50): 0.63 µM
CC50 [15, 43]: > 50 µM
TGI ([15]; read-out: TGI): 8.48 µM
GI50 ([15]; read-out: pGI50 (converted)): 0.631 µM
CC50 [15, 44]: > 50.1 µM
TGI ([15]; read-out: pTGI (converted)): 8.51 µM
growth [16]: -11%
growth at 5 µM [17]: 93%
growth at 500 µM [18]: 78%
growth at 0.5 µM [19]: 88%
GI50 ([20]; read-out: GI50): 3.86 µM
CC50 [20, 43]: > 50 µM
TGI ([20]; read-out: TGI): > 50 µM
GI50 ([20]; read-out: pGI50 (converted)): 3.89 µM
CC50 [20, 44]: > 50.1 µM
TGI ([20]; read-out: pTGI): > 50.1 µM
growth at 0.5 µM [21]: 81%
growth at 0.5 µM [22]: 83%
GI50 ([23]; read-out: GI50): 11.2 µM
CC50 [23, 43]: > 50 µM
TGI ([23]; read-out: TGI): > 50 µM
GI50 ([23]; read-out: pGI50 (converted)): 11.2 µM
CC50 [23, 44]: > 50.1 µM
TGI ([23]; read-out: pTGI): > 50.1 µM
growth at 0.5 µM [24]: 99%
growth at 50 µM [25]: 100%
growth at 5000 µM [26]: 30%
growth [27]: -8%
GI50 ([28]; read-out: GI50): 10.9 µM
CC50 [28, 43]: > 50 µM
TGI ([28]; read-out: TGI): 44.9 µM
GI50 ([28]; read-out: pGI50 (converted)): 10.5 µM
CC50 [28, 44]: > 50.1 µM
TGI ([28]; read-out: pTGI (converted)): 44.7 µM
growth at 50 µM [29]: 92%
growth at 0.5 µM [30]: 74%
growth at 5 µM [31]: 95%
growth at 5 µM [32]: 95%
growth at 5 µM [33]: 89%
growth at 500 µM [34]: 59%
growth at 50 µM [35]: 77%
growth at 50 µM [36]: 101%
growth at 500 µM [37]: 79%
growth at 50 µM [38]: 99%
growth at 500 µM [39]: 58%
growth at 50 µM [40]: 85%
growth at 500 µM [41]: 38%
growth at 5000 µM [42]: 4%
